Results on five compounds are retold here after patent US5444061A, “Anti-cancer compounds” (British Technology Group Limited, priority 1991, dated 1995).

In one series the test system is MCF-7 cell line. In words: Inhibition of growth of the human breast cancer cell line MCF-7 in cell culture. The conditions noted are these: MCF7, MCF-7 cell culture, read-out: IC50 against the MCF-7 cell line. The format is cell-based. The source says:
The test may be similar to that described by Lippman et al (Cancer Res., 1976, 36, 4595).

Series [1] is described as follows: In vivo stability to cleavage of the central amide linkage of the dipeptide (i.p., mice). The arrangement: species or system mouse (male C57/DBA2 F1 hybrid). The conditions noted are these: 100 mg/kg i.p., 1 hour; for Stability (cleavage of the central amide linkage of the dipeptide): based on dipeptide and cleavage product found in plasma and liver. As to the method:
In vivo tests in mice at a dosage of 100 mg/kg with various compounds according to the invention have shown a substantial lack of cleavage of the central amide linkage of the dipeptide as assessed by measurement of the amount of the cleavage product as a percentage of the total of parent compound and cleavage product present in the liver or plasma of a mouse sacrificed 1 hour after intraperitoneal administration of the dipeptide, i.e. cleavage was within the limit of experimental detection which is about 5%. Although a minor degree of cleavage of this amide linkage of the quinazoline is acceptable when it is used in practice, a level of cleavage on administration in vivo of less than 10% is preferred, with no more than about 5% being desirable, especially 2% or 1% or less.
The four compounds were also tested for in vivo stability to cleavage of the central amide linkage of the dipeptide. This test comprised injecting the compound intraperitoneally into male C57/DBA2 (F1 hybrid) mice at a standard dosage rate of 100 mg/kg, sacrificing the animals after 1 hour, removing the plasma, liver and kidneys, homogenising these individually in nine times the volume of 0.1 M Tris HCl at pH 10, precipitating the protein and analysing the product in 0.05 M NaHCO3 by hplc on a Sperisorb C-6 column eluting with acetonitrile/sodium acetate of pH 5.0. UV measurements at 280 and 313 nm were used to detect the dipeptide and the breakdown product of cleavage at the central amide bond of the dipeptide, i.e. the L-glutamic acid derivative or D-glutamic acid derivative. Identification of the parent compound and any breakdown product was effected by Rt comparisons against standard samples of these compounds which have been subjected to the same treatment as the liver, kidney and plasma samples.
The results obtained are shown in the Table, the identification of a compound which is "not cleaved" as compared with a compound which is "cleaved" being made on the basis of the amount of the dipeptide and its cleavage product found in the plasma and the liver.

In a further series the test system is L1210 cell line. Kind of series: Inhibition of growth of the leukaemia cell line L1210 in cell culture. In kind it is cell-based. The conditions noted are these: Mus musculus. The source says:
The test may be similar to that described in UK Patent Specification No. 2065653B; and […]

The test system of series [2] is human breast, ovarian and liver cancer. The conditions noted are these: humans; cited from earlier work.
The conditions of series [3]: particularly in relation to the liver and kidneys; cited from earlier work.

The structures appear in SMILES notation.

`C#CCN(Cc1ccc2nc(C)nc(O)c2c1)c1ccc(C(=O)N[C@@H](CCC(=O)N[C@H](CCC(=O)O)C(=O)O)C(=O)O)cc1` [Example 1, N-p-[N-(3,4-Dihydro-2-methyl-4-oxoquinazolin-6-ylmethyl)-N-(prop-2-ynyl)amino]benzoyl-L-γ-glutamyl-D-glutamic acid]: the IC50 in the series with MCF-7 cell line is 0.3 µM. Further, in series [1], the “location of the remaining part of the parent dipeptide which was detected” value is reported as “found mostly in the plasma”, the “Stability (cleavage of the central amide linkage of the dipeptide)” value (shortened to “Stability”) is “not cleaved” and the “cleavage product accompanying the parent dipeptide in the plasma” value is recorded as “no cleavage product”. Besides, in series [1] (liver, typical experiment), the “cleavage product in the liver, as a percentage of the total drug administered” value is “no cleavage product” and the “parent dipeptide present in the liver, as a percentage of the total drug administered” value is 27±2%. The IC50 with L1210 cell line stood at 0.18 µM.
`C#CCN(Cc1ccc2nc(C)[nH]c(=O)c2c1)c1ccc(C(=O)N[C@H](CCC(=O)N[C@@H](CCC(=O)O)C(=O)O)C(=O)O)cc1` [D-glu-L-glu]: in series [1], the “Stability” value is “cleaved”. The IC50 in the series with L1210 cell line came out at 3.4 µM.
On to `C#CCN(Cc1ccc2nc(C)nc(O)c2c1)c1ccc(C(=O)N[C@H](CCC(=O)N[C@H](CCC(=O)O)C(=O)O)C(=O)O)cc1` [Example 10, N-p-[N-(3,4-dihydro-2-methyl-4-oxoquinazolin-6-ylmethyl)-N-(prop-2-ynyl)amino]benzoyl-D-γ-glutamyl-D-glutamic acid], for which, in series [1], the “Stability” value was “not cleaved”. In addition, the half-maximal inhibitory concentration (IC50) in the series on L1210 cell line turned out to be 1.3 µM.
For the compound `C#CCN(Cc1ccc2nc(N)[nH]c(=O)c2c1)c1ccc(C(=O)N[C@@H](CCC(=O)O)C(=O)O)cc1` [CB3717], the “activity against human breast, ovarian and liver cancer” value in series [2] was “promising activity against human breast, ovarian and liver cancer”. In series [3], the toxicity in humans entry is “shows symptoms of toxicity in humans, particularly in relation to the liver and kidneys”.
For the compound `C#CCN(Cc1ccc2nc(C)nc(O)c2c1)c1ccc(C(=O)N[C@@H](CCC(=O)N[C@@H](CCC(=O)O)C(=O)O)C(=O)O)cc1` [L-glu-L-glu], in series [1], the “location of the remaining part of the parent dipeptide which was detected” value is on record as “found mostly in the plasma”, the “Stability” value is “cleaved” and the “cleavage product accompanying the parent dipeptide in the plasma” value is “a significant amount of the cleavage product”. Further, in series [1] (liver, typical experiment), the “parent dipeptide present in the liver, as a percentage of the total drug administered” value was 1.6±0.8%. In addition, the IC50 with L1210 cell line was 0.1 µM.

What is called IC50 is the concentration at which inhibition is half-maximal.
